Measured values reported in US11079373B2, “Biomarker detection methods and systems and kits for practicing same” (The Board of Trustees of the Leland Stanford Junior …, priority 2015, dated 2021).

Experiments:
Assay type in all cases: cell-based, human
[1] = test system: peripheral blood mononuclear cells (PBMC); assay: FlowSpot IFNγ secretion in situ detection, PBMC co-cultured with IFNγ capture microparticles in presence of PHA; settings: 16 h; for FLOWSPOT SPOTS (n) (IFNγ): percent positive × 7,000
Method: (§1) One hundred thousand peripheral blood mononuclear cells (0.1×10^6 PBMC) or purified lymphocytes were mixed with 7,000 capture microspheres and distributed into each assay well of a 96-well U bottom plate. The plate was centrifuged at 1,500×g for 5 min and the supernatant was removed. The pellet of cells and capture beads were resuspended in 200 μL culture medium with or without testing reagent(s) or stimulus(i), then the plate was incubated in a humidified 37° C., 5% CO2 incubator for 10 min to 7 days (usually 2 to 16 h). After incubation, the cells were lysed in NP-40 lysis buffer (10 mM Tris-HCl, pH 7.4, 10 mM NaCl, 3 mM MgCl2, 0.5% NP-40). The capture beads were washed twice with 3% HBSA (3% BSA in HBSS) and incubated with 50 μL PE-labeled anti-Bio-marker for 60 min at room temperature. After two washes of 3% HBSA, the beads were acquired and analyzed on a BD FACSCanto II flow cytometer. The number of positive spots was calculated based on the following formulas: Percent positive spots (%)=Number of positive particles acquired/Total number of particles acquired×100 Total number of positive spots=Percent positive spots (%)×7,000 (where 7,000=total number of particles/test)
In parallel, 0.1×10^6 PBMC cells from the same donor were co-cultured with 7,000 IFNγ capture microparticles in a humidified 37° C., 5% CO2 incubator for 16 h in the presence of PHA at various concentrations. After incubation, the cells were lysed in NP-40 lysis buffer (10 mM Tris-HCl, pH 7.4, 10 mM NaCl, 3 mM MgCl2, 0.5% NP-40). The capture beads were washed twice with 3% HBSA (3% BSA in HBSS) and incubated with 50 μL PE-labeled anti-IFNγ for 60 min at room temperature. After an additional two washes of 3% HBSA, the beads were acquired and analyzed on a BD FACSCanto II flow cytometer.

[2] = test system: peripheral blood mononuclear cells (PBMC); assay: Cytometric Bead Array (CBA) IFNγ secretion detection in culture media of PHA-treated PBMC; settings: 16 h, culture medium
Method: One hundred thousand peripheral blood mononuclear cells (0.1×10^6 PBMC) in 100 μL of 10% FBS RPMI 1640 containing varying concentrations of PHA were seeded in each well in a 96 well plate and incubated in a humidified 37° C., 5% CO2 incubator for 16 h. The plate was centrifuged at 2,500 g for 3 min and 50 μL culture medium of each well was carefully transferred into each corresponding test well in a new 96 well plate. After adding 50 μL INFγ capture beads (BD Biosciences; Cat. 558269) into each well, the plate was incubated at room temperature (RT) for 60 min with constant shaking on a plate shaker. After adding 50 μL INFγ PE-detection reagents (BD Biosciences; Cat. 51-9004031), the plate was continually incubated at RT for additional 2 h. The beads were then washed three times with 200 μL wash buffer (0.05% Tween-20 in PBS) and acquired on a BD FACSCanto II flow cytometer. The concentrations of INFγ in the culture media from each well were extrapolated from the standard curve generated from a series of known INFγ standards in the same batch of CBA assay.

PBMC cells = assay: Three-color IFNγ/IL-2/GrB detection by […]; settings: PHA 20 ug/mL, 16 h
C.T.L. cells = assay: Two-color IFNγ/IL-2 detection by FLOWSPOT; settings: PHA at various concentrations, 16 h
Method: as §1
One hundred thousand C.T.L. cells were co-cultured with a mix of IFNγ and IL-2 capture microparticles (7,000 each with different fluorescent ID codes) for 16 h in the presence of PHA at various concentrations.

phytohaemagglutinin [PHA]
FLOWSPOT MFI (IFNγ) ([1]; PHA 0.5 μg/mL): 166 | FLOWSPOT % Positive Spot (IFNγ) ([1]; PHA 0.5 μg/mL, 0.1×10^6 PBMC, 7,000 microparticles): 24% | FLOWSPOT SPOTS (n) (IFNγ) ([1]; PHA 0.5 μg/mL): 1680 n | FLOWSPOT % Positive Spot (IFNγ) ([1]; PHA 1 μg/mL): 35% | FLOWSPOT MFI (IFNγ) ([1]; PHA 1 μg/mL): 659 | FLOWSPOT SPOTS (n) (IFNγ) ([1]; PHA 1 μg/mL): 2450 n | FLOWSPOT % Positive Spot (IFNγ) ([1]; PHA 2.5 μg/mL): 43% | FLOWSPOT MFI (IFNγ) ([1]; PHA 2.5 μg/mL): 4050 | FLOWSPOT SPOTS (n) (IFNγ) ([1]; PHA 2.5 μg/mL): 3010 n | FLOWSPOT % Positive Spot (IFNγ) ([1]; PHA 5 μg/mL): 45% | FLOWSPOT MFI (IFNγ) ([1]; PHA 5 μg/mL): 9541 | FLOWSPOT SPOTS (n) (IFNγ) ([1]; PHA 5 μg/mL): 3150 n | FLOWSPOT % Positive Spot (IFNγ) ([1]; PHA 10 μg/mL): 56% | FLOWSPOT MFI (IFNγ) ([1]; PHA 10 μg/mL): 19594 | FLOWSPOT SPOTS (n) (IFNγ) ([1]; PHA 10 μg/mL): 3920 n | FLOWSPOT % Positive Spot (IFNγ) ([1]; PHA 15 μg/mL): 57% | FLOWSPOT MFI (IFNγ) ([1]; PHA 15 μg/mL): 21680 | FLOWSPOT SPOTS (n) (IFNγ) ([1]; PHA 15 μg/mL): 3990 n | FLOWSPOT % Positive Spot (IFNγ) ([1]; PHA 20 μg/mL): 55% | FLOWSPOT MFI (IFNγ) ([1]; PHA 20 μg/mL): 22241 | FLOWSPOT SPOTS (n) (IFNγ) ([1]; PHA 20 μg/mL): 3850 n | CBA IFNγ ([2]; PHA 0.5 μg/mL, from standard curve): 17 pg/mL | CBA IFNγ ([2]; PHA 1 μg/mL): 36 pg/mL | CBA IFNγ ([2]; PHA 2.5 μg/mL): 76 pg/mL | CBA IFNγ ([2]; PHA 5 μg/mL): 174 pg/mL | CBA IFNγ ([2]; PHA 10 μg/mL): 281 pg/mL | CBA IFNγ ([2]; PHA 15 μg/mL): 344 pg/mL | CBA IFNγ ([2]; PHA 20 μg/mL): 312 pg/mL | median channel value (MCV), intensity of IFNγ secretion (PBMC cells): 653 | median channel value (MCV), intensity of IL-2 secretion (PBMC cells): 407 | number of positive spots for GrB (PBMC cells): 630 spots | number of positive spots for IFNγ (PBMC cells): 5,320 spots | number of positive spots for IL-2 (PBMC cells): 4,340 spots | IFNγ response to PHA (C.T.L. cells): dose-dependent responses | IL-2 response to PHA (C.T.L. cells): dose-dependent responses
